# In patent US20230279355A1, “METHOD FOR THE IN VITRO OR EX VIVO AMPLIFICATION OF STEM CELLS OF BROWN OR BEIGE ADIPOCYTES” (CENTRE NATIONAL DE LA RECHERCHE SCIENTIFIQUE, priority 2020, published 2023):
# Columns and labels:
# cells in suspension = conditions: reported; cited from earlier work
# UCP1 = conditions: described in the literature; cited from earlier work
# hASCs = assay: differentiation of hASCs into adipocytes (PLIN1, UCP1 expression); type: cell-based, human
# Procedure: In order to determine the differentiation medium, different media were tested. These media were enriched with adipogenic factors then tested for the differentiation of the hASCs. […] It should also be noted that the medium n° 5 is an option to the EGM+ which has not been pursued further.
# [1] = system: hECs (endothelial cells of human adipose tissue)
# Procedure: In order to determine the proliferation medium, five mediums, which are generally marketed for the proliferation of human endothelial cells, were tested.
smiles,measurement,setting,value
C[C@@H](N)[C@H]1CC[C@H](C(=O)Nc2ccncc2)CC1 [Y27632],cell viability in suspension,cells in suspension,increasing the cell viability in suspension
"C[C@]12CCC(=O)C=C1CC[C@@H]1[C@@H]2[C@@H](O)C[C@@]2(C)[C@H]1CC[C@]2(O)C(=O)CO [hydrocortisone, Hydrocortisone]",expression of UCP1,UCP1,able to inhibit the expression of UCP1
NC(=O)c1ccc(-c2nc(-c3ccc4c(c3)OCO4)c(-c3ccccn3)[nH]2)cc1 [SB431542],expression of UCP1,hASCs; addition of SB431542 and maintenance of Rosiglitazone,allows the expression of UCP1
same,differentiation into adipocytes (PLIN1),"hASCs; dexamethasone and IBMX removed after the first three days, SB431542 added",allows restoring the differentiation
same,viability of hECs,[1],no consequence upon the viability of hECs
